The values that follow come from patent publication US20190336460A1, “C[…] ACID OR PHARMACEUTICALLY ACCEPTABLE SALT THEREOF AS ACTIVE INGREDIENT FOR PREVENTING OR TREATING OBESITY OR METABOLIC SYNDROMES CAUSED BY OBESITY” (KOREA FOOD RESEARCH INSTITUTE, priority 2016, published 2019).

SMILES strings stand for the structures. Values joined by “and” are separate entries in the source; they are usually repeats but may differ in a detail not shown here. Equal entries are not always repeated.

The subject of data set [1] is high-fat diet-induced obesity experimental animals (C57BL/6J mice). In words: Body weight change in high-fat diet-induced obesity mice orally given organic acid salts. Type of data set: in vivo, mouse. To be noted: for reduction in body weight gain compared with the high-fat diet control group / average body weight after 13 weeks of rearing: C57BL/6J mice, high-fat diet 13 weeks, oral once a day; for reduction in body weight gain compared with the high-fat diet control group: 10 mmol; for average body weight after 13 weeks of rearing: 10 mmol (2 μg/g bodyweight). The method, then: (§1) In the present experiment, five-week-old C57BL/6J mice were purchased from Saeron Bio (Uiwang, Korea), and acclimated for 1 week before use in the experiment. The rearing room was controlled to have a temperature of 20±2° C., a humidity of 55±10%, and a light/darkness cycle of 12 hours during the experimental period. The experimental animals were divided into 6 groups according to the randomized block design, after 1-week of normal diet. The experimental groups were classified into Group A (normal diet group; n=10), Group B (high-fat diet control group; n=10), Group C (high-fat diet+sodium formate 10 mmol; n=9), Group D (high-fat diet+sodium butyrate 10 mmol; n=9), Group E (high-fat diet+sodium propionate 10 mmol; n=8), and Group F (high-fat diet+sodium acetate 10 mmol; n=4).
(§2) Water and feed were freely accessible. Groups A and B were orally administered with physiological saline, and the other groups were orally administered with corresponding organic acids once a day (2 μg/g bodyweight). For the test groups, obesity was induced by a high-fat diet for 13 weeks, and a high-fat diet (D12492; 60% of the calories) purchased from Research Diet (USA) was used in the experiment.
(§3) The body weights of the experimental animals were measured at a fixed time once a week during the experiment. The experimental animals were fasted for 12 hours before sacrifice, and blood was collected from eyes of the experimental animals anesthetized with ether. In order to prevent the coagulation of the blood after collection, the blood was placed in anti-coagulation tubes and left in an ice bath for 20 min. The collected blood samples were centrifuged at 3000 rpm for 10 min to separate serum therefrom, and refrigerated until use in the experiment. Thereafter, the kit through an enzymatic method was purchased from Young Dong Diagnostics (Yong-In, Korea) to measure the levels of blood lipids (triglyceride, cholesterol, HDL-Cholesterol, and LDL-Cholesterol). The organs were extracted, washed with physiological saline, dehydrated with a filter bed, and then weighed.
The high-fat diet-induced obesity experimental animals (C57BL/6J mice) were orally administered with each 10 mmol corresponding organic acid for 13 weeks, and the weights of the mice were measured once a week during the rearing.

For data set [2] the test system is unchanged. In words: Blood analysis: serum lipid concentrations in high-fat diet-induced obesity mice. Type of data set: in vivo, mouse. To be noted: for serum Cholesterol / serum HDL / serum LDL / serum Triglyceride / serum triglyceride, lower value compared with the high-fat diet control group / content of cholesterol, reduction compared with the high-fat diet control group: C57BL/6J mice, high-fat diet 13 weeks, 10 mmol; for serum Cholesterol / serum HDL / serum LDL / serum Triglyceride: oral once a day, 12 h fasted, mean ± S.D.; for serum triglyceride, lower value compared with the high-fat diet control group / content of cholesterol, reduction compared with the high-fat diet control group: oral; for LDL-cholesterol content compared with the high-fat diet control group (in words): mouse, in vivo. The method, then: as §1, §2, §3

In another data set the test system is epididymal fat cells. The data set is described as follows: Size measurement of epididymal fat cells (H&E staining, Image J). Type of data set: in vivo, mouse. The settings on record: C57BL/6J mice, high-fat diet 13 weeks, oral, 10 mmol; compared among groups and with high-fat diet control group. The method, then: as §1, §2
The immobilized tissue was sliced into 18 μm using a cryostat microtome, and fat cells were stained by hematoxylin and eosin (H&E) fat staining. The fat cells were decolorized using 60% isopropanol after the staining, and then imaged using a digital camera under a microscope. For size analysis of fat cells, the area of fat cells was measured using Image J Software (National Institute of Health, Maryland, USA).

In data set [3] the test system is high-fat diet-induced obesity experimental animals (C57BL/6J mice). In words: Organ weights (fat tissues, prostate, liver, spleen) in high-fat diet-induced obesity mice. Type of data set: in vivo, mouse. To be noted: high-fat diet 13 weeks, 10 mmol; for Brown fat weight / Epididymal fat weight / Kidney fat weight / Subcutaneous fat weight: oral once a day, mean ± S.D. The procedure:
as §1, §2, §3
The kidney fat, epididymal fat, subcutaneous fat, brown fat, prostate, liver, and spleen were extracted immediately after blood collection from the control and experimental groups, and washed with physiological saline, subjected to surface moisture removal, and then weighed.

For data set [4] the following is noted: administered orally; cited from earlier work.
[5] abbreviates: oral, no significant difference.

With `CCC(=O)[O-].[Na+]` [propionate, sodium propionate], in data set [1], the “reduction in body weight gain compared with the high-fat diet control group” value (“reduction in body weight gain” for short) turned out to be 18.3% and the “average body weight after 13 weeks of rearing” value (from here on “average body weight”) is 30.05 g. In data set [2], the “serum Cholesterol” value is recorded as 95.63 ± 5.41^B mg/dl; the “serum HDL” value is reported as 50.12 ± 1.69^C mg/dl; the “serum LDL” value is given as 30.41 ± 0.51^B mg/dl; the “serum Triglyceride” value is 120.68±10.07 mg/dl and 120.68 ± 10.07^B mg/dl. Moreover, the “serum triglyceride, lower value compared with the high-fat diet control group” value in data set [2] was 7.2%. Moreover, the “epididymal fat cell size (in words)” value in the data set with epididymal fat cells is “smaller in that order of butyrate, propionate, formate, and acetate”. In data set [3], the Brown fat weight was 0.09 ± 0.02^A g; the Epididymal fat weight was 1.91 ± 0.44^B g; the Kidney fat weight is 0.71 g and 0.66 ± 0.09^C g; the Subcutaneous fat weight was 1.07 g and 1.07 ± 0.24^B g. Further, in data set [3] (oral), the “weight of epididymal fat, lower value compared with the high-fat diet control group” value came to 23.6% and the “weight of subcutaneous fat, lower value compared with the high-fat diet control group” value is 32.27%.
Regarding `CC(=O)[O-].[Na+]` [acetate, sodium acetate], in data set [1], the “average body weight” value is on record as 41.08 g. The “body weight compared with the high-fat diet control group (in words)” value in data set [1] (after 13 weeks, p<0.05) is on record as “no significant difference”. In data set [2], the “serum Cholesterol” value is recorded as 114.86 ± 3.76^A mg/dl; the “serum HDL” value was 61.09 ± 2.21^A mg/dl; the “serum LDL” value is reported as 32.34 ± 1.44^A mg/dl; the “serum Triglyceride” value is 155.21±5.43 mg/dl and 155.21 ± 5.43^A mg/dl. For the same molecule, the “content of cholesterol, reduction compared with the high-fat diet control group” value in data set [2] is reported as 7.8%. Moreover, in data set [2] (p<0.05), the “serum triglyceride compared with the high-fat diet control group (in words)” value was “significantly higher value”. Also, in the data set with epididymal fat cells, the “epididymal fat cell size (in words)” value was “smaller in that order of butyrate, propionate, formate, and acetate”. In data set [3], the Brown fat weight is 0.11 ± 0.03^A g; the Epididymal fat weight is 2.31 ± 0.45^AB g; the Kidney fat weight was 0.66 g and 0.81 ± 0.07^BAB g; the Subcutaneous fat weight is on record as 1.74 ± 0.31^A g. In addition, in data set [3] (oral), the “weight of epididymal fat, lower value compared with the high-fat diet control group” value amounted to 7.6%. Moreover, in data set [3] (setting [5]), the “weight of brown fat, higher value compared with the high-fat diet control group” value is recorded as 22.22% and the “weight of subcutaneous fat, higher value compared with the high-fat diet control group” value amounted to 10.13%.
As for `CCCC(=O)[O-].[Na+]` [butyrate, sodium butyrate], in data set [1], the “reduction in body weight gain” value amounted to 15.6% and the “average body weight” value is listed as 31.25 g. In data set [2], the “serum Cholesterol” value is reported as 95.63 ± 3.87^B mg/dl; the “serum HDL” value was 55.99 ± 0.43^B mg/dl; the “serum LDL” value is listed as 24.95 ± 1.23^D mg/dl; the “serum Triglyceride” value is 128.01±14.72 mg/dl and 128.01 ± 14.72^B mg/dl. The “LDL-cholesterol content compared with the high-fat diet control group (in words)” value in data set [2] is “lower values”. Also, the “epididymal fat cell size (in words)” value in the data set on epididymal fat cells is “smaller in that order of butyrate, propionate, formate, and acetate”. Besides, in data set [3], the Brown fat weight is recorded as 0.09 ± 0.04^A g; the Epididymal fat weight was 2.00 ± 0.29^B g; the Kidney fat weight is 0.71 ± 0.12^BC g; the Subcutaneous fat weight was 1.16 g and 1.16 ± 0.25^B g. Also, in data set [3] (oral), the “weight of epididymal fat, lower value compared with the high-fat diet control group” value is listed as 20% and the “weight of subcutaneous fat, lower value compared with the high-fat diet control group” value amounted to 26.58%.
`O=C[O-].[Na+]` [formate, sodium formate]: in data set [1], the “reduction in body weight gain” value was 10.4% and the “average body weight” value was 36.78 g. Moreover, in data set [2], the “serum Cholesterol” value is given as 79.00 ± 2.81^C mg/dl; the “serum HDL” value is on record as 41.51 ± 3.56^D mg/dl; the “serum LDL” value is 26.24 ± 0.29^CD mg/dl; the “serum Triglyceride” value is 99.48±14.18 mg/dl and 99.48 ± 14.18^C mg/dl. For the same molecule, in data set [2], the “content of cholesterol, reduction compared with the high-fat diet control group” value was determined as 36.6%; the “serum triglyceride, lower value compared with the high-fat diet control group” value stood at 23.54%; the “LDL-cholesterol content compared with the high-fat diet control group (in words)” value was “lower values”. For the same molecule, in the data set on epididymal fat cells, the “epididymal fat cell size (in words)” value was “smaller in that order of butyrate, propionate, formate, and acetate”. Moreover, in data set [4], the “oral amount causing no side effect in the human body” value is on record as “up to 10 g”. In data set [3], the Brown fat weight is 0.09 ± 0.03^A g; the Epididymal fat weight is 2.01 ± 0.24^B g; the Kidney fat weight was 0.72 g and 0.72 ± 0.08^BC g; the Subcutaneous fat weight is 1.08 g and 1.08 ± 0.21^B g. Besides, in data set [3] (oral), the “weight of epididymal fat, lower value compared with the high-fat diet control group” value turned out to be 19.6% and the “weight of subcutaneous fat, lower value compared with the high-fat diet control group” value came out at 31.16%.
